In the NIST ThermoML archive (doi:10.1016/j.jct.2017.08.025):
“And” between values parts separate entries of the source, which are not always exact repeats. Equal values may be shown once. Numbers after ± are expanded uncertainties.

Assay: mn = molality of the nth substance listed, in mol/kg
Settings: 100 kPa, Liquid; for speed of sound: Frequency=3 MHz, Single path-length method; for mass density: Vibrating tube method

## CCCCn1cc[n+](C)c1.F[B-](F)(F)F [1-butyl-3-methylimidazolium tetrafluoroborate] + O
288.15 K, m1 = 0.005
  speed of sound: 1464.7 ± 4 m/s
  mass density: 999.42 ± 2 kg/m3
288.15 K, m1 = 0.01
  speed of sound: 1465.1 ± 4 m/s
  mass density: 999.705 ± 2 kg/m3
288.15 K, m1 = 0.03
  speed of sound: 1467 ± 4 m/s
  mass density: 1000.86 ± 2 kg/m3
288.15 K, m1 = 0.05
  speed of sound: 1468.8 ± 4 m/s
  mass density: 1002 ± 2 kg/m3
293.15 K, m1 = 0.005
  speed of sound: 1482.6 ± 4 m/s
  mass density: 998.517 ± 2 kg/m3
293.15 K, m1 = 0.01
  speed of sound: 1483.1 ± 4 m/s
  mass density: 998.831 ± 2 kg/m3
293.15 K, m1 = 0.03
  speed of sound: 1484.9 ± 4 m/s
  mass density: 999.967 ± 2 kg/m3 and 999.97 ± 2 kg/m3
293.15 K, m1 = 0.05
  speed of sound: 1486.7 ± 4 m/s
  mass density: 1001 ± 2 kg/m3
298.15 K, m1 = 0.005
  speed of sound: 1497.5 ± 4 m/s
  mass density: 997.393 ± 2 kg/m3
298.15 K, m1 = 0.01
  speed of sound: 1497.9 ± 4 m/s
  mass density: 997.7 ± 2 kg/m3 and 997.702 ± 2 kg/m3
298.15 K, m1 = 0.03
  speed of sound: 1499.8 ± 4 m/s
  mass density: 998.803 ± 2 kg/m3
298.15 K, m1 = 0.05
  speed of sound: 1501.6 ± 4 m/s
  mass density: 999.906 ± 2 kg/m3 and 999.91 ± 2 kg/m3
303.15 K, m1 = 0.005
  speed of sound: 1512.3 ± 4 m/s
  mass density: 995.982 ± 2 kg/m3
303.15 K, m1 = 0.01
  speed of sound: 1512.8 ± 4 m/s
  mass density: 996.31 ± 2 kg/m3 and 996.311 ± 2 kg/m3
303.15 K, m1 = 0.03
  speed of sound: 1514.6 ± 4 m/s
  mass density: 997.512 ± 2 kg/m3 and 997.51 ± 2 kg/m3
303.15 K, m1 = 0.05
  speed of sound: 1516.4 ± 4 m/s
  mass density: 998.675 ± 2 kg/m3 and 998.68 ± 2 kg/m3
308.15 K, m1 = 0.005
  speed of sound: 1519.6 ± 4 m/s
  mass density: 994.365 ± 2 kg/m3
308.15 K, m1 = 0.01
  speed of sound: 1520.6 ± 4 m/s
  mass density: 994.694 ± 2 kg/m3
308.15 K, m1 = 0.03
  speed of sound: 1522.4 ± 4 m/s
  mass density: 995.895 ± 2 kg/m3
308.15 K, m1 = 0.05
  speed of sound: 1524.2 ± 4 m/s
  mass density: 996.998 ± 2 kg/m3 and 997 ± 2 kg/m3
